This is an account of results in patent US20240239806A1, “COMPOUNDS, COMPOSITIONS AND METHODS OF TREATING DISORDERS” (Chengdu Anticancer Bioscience, Ltd., priority 2021, published 2024).

By pEC50 is commonly meant −log10 of the EC50, conventionally taken in molar units. A higher pEC50 goes with a small EC50.

Molecules are shown by their SMILES. pEC50, pIC50: −log10 of the molar value. “Also recorded” adds a separate entry of the source.

The first experiment has as its system RPEMYC^H2B-GFP cells. Put plainly: Phenotypic screening assay (mitotic arrest, polyploidy). The experiment is classed as cell-based. To be noted: 1 nM to 30 μM, read-out: Min. Effective conc. for Polyploidy (≥5%). In a few lines:
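RPE cells expressing MYC and H2B-EGFP treated with compound at 1 nM–30 μM; mitotic index scored at 24 h and polyploidy (DNA content) at 48 h by automated imaging, with reads at 24, 48 or 72 h. Hits show transient mitotic arrest followed by polyploid accumulation.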
As for `COc1cc(Oc2ccnc3ccsc23)cc(-n2cccn2)c1` [Compound 40, 7-(3-methoxy-5-(1H-pyrazol-1-yl)phenoxy)thieno[3,2-b]pyridine], the minimal effective concentration lay in the range of 0.001 to 1 µM.

The experiment is the same for the next values; noted with them: 1 nM to 30 μM, read-out: Mitotic Arrest (≥5%).
With `COc1cc(Oc2ccnc3ccsc23)cc(-n2cccn2)c1` [Compound 40, 7-(3-methoxy-5-(1H-pyrazol-1-yl)phenoxy)thieno[3,2-b]pyridine], the minimal effective concentration lay in the range of 0.001 to 1 µM.

The same experiment, now with this note: 1 nM to 30 μM, read-out: Proliferative arrest (>50%).
Turning to `COc1cc(Oc2ccnc3ccsc23)cc(-n2cccn2)c1` [Compound 40, 7-(3-methoxy-5-(1H-pyrazol-1-yl)phenoxy)thieno[3,2-b]pyridine], the pIC50 was 6.00 to 9.00.

The test system of a further experiment is A549. Put plainly: MECP in cancer cell line. The experiment is classed as cell-based. To be noted: Homo sapiens. In short, it runs like this:
(§1)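 Potency reported in bins: A 1 nM-1.0 μM, B to 10.0 μM, C to 30.0 μM, D above 30.0 μM. Compounds (1 nM-30 μM) applied to cells in DMEM/5% FBS; imaging-based readout at 24-72 h of mitotic index (raised at 24 h) and polyploidy (48 h), marking cytokinetic failure.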
In turn, `COc1cc(Oc2ccnc3ccsc23)cc(-n2cccn2)c1` [Compound 40, 7-(3-methoxy-5-(1H-pyrazol-1-yl)phenoxy)thieno[3,2-b]pyridine] displayed a minimal effective concentration of 0.001 to 1 µM.

The next experiment deals with HCT116. Put plainly: MECP in cancer cell line. The experiment is classed as cell-based. The following applies: Homo sapiens, HCT-116. In a few lines: as §1
Compound `COc1cc(Oc2ccnc3ccsc23)cc(-n2cccn2)c1` [Compound 40, 7-(3-methoxy-5-(1H-pyrazol-1-yl)phenoxy)thieno[3,2-b]pyridine] displayed a minimal effective concentration of 0.001 to 1 µM.

The test system of the next experiment is Hela. Put plainly: MECP in cancer cell line. It counts as cell-based. To be noted: Homo sapiens. In short, it runs like this: as §1
As to `COc1cc(Oc2ccnc3ccsc23)cc(-n2cccn2)c1` [Compound 40, 7-(3-methoxy-5-(1H-pyrazol-1-yl)phenoxy)thieno[3,2-b]pyridine], the minimal effective concentration fell in the range of 0.001 to 1 µM.

The test system of another experiment is MDA-MB-231. The experiment is described as follows: MECP in cancer cell line. It counts as cell-based. To be noted: Homo sapiens. In a few lines:
as §1
For `COc1cc(Oc2ccnc3ccsc23)cc(-n2cccn2)c1` [Compound 40, 7-(3-methoxy-5-(1H-pyrazol-1-yl)phenoxy)thieno[3,2-b]pyridine], the minimal effective concentration lay in the range of 0.001 to 1 µM.

The subject of a further experiment is SW480. Put plainly: MECP in cancer cell line. The experiment is classed as cell-based. The following applies: Homo sapiens. In short, it runs like this: as §1
Regarding `COc1cc(Oc2ccnc3ccsc23)cc(-n2cccn2)c1` [Compound 40, 7-(3-methoxy-5-(1H-pyrazol-1-yl)phenoxy)thieno[3,2-b]pyridine], the minimal effective concentration fell in the range of 0.001 to 1 µM.

The test system of a further experiment is T2 HCC. The experiment is described as follows: MECP in cancer cell line. The experiment is classed as cell-based. The following applies: Mus musculus. In a few lines: as §1
Compound `COc1cc(Oc2ccnc3ccsc23)cc(-n2cccn2)c1` [Compound 40, 7-(3-methoxy-5-(1H-pyrazol-1-yl)phenoxy)thieno[3,2-b]pyridine] came in with a minimal effective concentration of 0.001 to 1 µM.

The next experiment deals with NCI-H23. Put plainly: MECP in cancer cell line. The experiment is classed as cell-based. The following applies: Homo sapiens. In short, it runs like this: as §1
The compound `COc1cc(Oc2ccnc3ccsc23)cc(-n2cccn2)c1` [Compound 40, 7-(3-methoxy-5-(1H-pyrazol-1-yl)phenoxy)thieno[3,2-b]pyridine] returned a minimal effective concentration of 0.001 to 1 µM.

In a further experiment the test system is NCI-N87. Put plainly: MECP in cancer cell line. The experiment is classed as cell-based. The following applies: Homo sapiens. In short, it runs like this: as §1
Compound `COc1cc(Oc2ccnc3ccsc23)cc(-n2cccn2)c1` [Compound 40, 7-(3-methoxy-5-(1H-pyrazol-1-yl)phenoxy)thieno[3,2-b]pyridine] came in with a minimal effective concentration of 0.001 to 1 µM.

The test system of a further experiment is A549. Put plainly: MTT assay of cellular proliferation. To be noted: Homo sapiens, 50% inhibition of cellular proliferation. The experiment is classed as cell-based. In short, it runs like this: (§2)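 Proliferation is scored by MTT conversion, with formazan absorbance at 570 nm proportional to live cell number. Cultures in 5% FBS DMEM at 37 °C are treated across 1 nM-30 μM, and the half-inhibitory concentration is reported as EC50.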
For orientation: Tetrazolium dyes change colour on reduction, which living cells bring about.
`COc1cc(Oc2ccnc3ccsc23)cc(-n2cccn2)c1` [Compound 40, 7-(3-methoxy-5-(1H-pyrazol-1-yl)phenoxy)thieno[3,2-b]pyridine]: the pEC50 was 6.00 to 9.00.

For another experiment, the system named is HCT116. Put plainly: MTT assay of cellular proliferation. It counts as cell-based. To be noted: Homo sapiens, HCT-116, 50% inhibition of cellular proliferation. In short, it runs like this:
as §2
Regarding `COc1cc(Oc2ccnc3ccsc23)cc(-n2cccn2)c1` [Compound 40, 7-(3-methoxy-5-(1H-pyrazol-1-yl)phenoxy)thieno[3,2-b]pyridine], the pEC50 was 6.00 to 9.00.

The subject of a further experiment is Hela. Put plainly: MTT assay of cellular proliferation. It counts as cell-based. The following applies: Homo sapiens, 50% inhibition of cellular proliferation. In a few lines:
as §2
As to `COc1cc(Oc2ccnc3ccsc23)cc(-n2cccn2)c1` [Compound 40, 7-(3-methoxy-5-(1H-pyrazol-1-yl)phenoxy)thieno[3,2-b]pyridine], the negative logarithm of the EC50 (pEC50) is 6.00 to 9.00.

For another experiment, the system named is MDA-MB-231. Put plainly: MTT assay of cellular proliferation. It counts as cell-based. To be noted: Homo sapiens; MDA-MB-231, MTT, 50% inhibition of cellular proliferation. In short, it runs like this: as §2
Regarding `COc1cc(Oc2ccnc3ccsc23)cc(-n2cccn2)c1` [Compound 40, 7-(3-methoxy-5-(1H-pyrazol-1-yl)phenoxy)thieno[3,2-b]pyridine], the pEC50 is 6.00 to 9.00.

Another experiment deals with NCI-H23. Put plainly: MTT assay of cellular proliferation. To be noted: Homo sapiens, 50% inhibition of cellular proliferation. It counts as cell-based. In short, it runs like this: as §2
`COc1cc(Oc2ccnc3ccsc23)cc(-n2cccn2)c1` [Compound 40, 7-(3-methoxy-5-(1H-pyrazol-1-yl)phenoxy)thieno[3,2-b]pyridine] showed a pEC50 of 6.00 to 9.00.

A further experiment relates to NCI-N87. The experiment is described as follows: MTT assay of cellular proliferation. To be noted: Homo sapiens, 50% inhibition of cellular proliferation. The experiment is classed as cell-based. In a few lines: as §2
`COc1cc(Oc2ccnc3ccsc23)cc(-n2cccn2)c1` [Compound 40, 7-(3-methoxy-5-(1H-pyrazol-1-yl)phenoxy)thieno[3,2-b]pyridine] gave a pEC50 of 6.00 to 9.00.

Another experiment deals with SW480. Put plainly: MTT assay of cellular proliferation. The experiment is classed as cell-based. The following applies: Homo sapiens, 50% inhibition of cellular proliferation. In a few lines: as §2
On to `COc1cc(Oc2ccnc3ccsc23)cc(-n2cccn2)c1` [Compound 40, 7-(3-methoxy-5-(1H-pyrazol-1-yl)phenoxy)thieno[3,2-b]pyridine], for which the pEC50 was 6.00 to 9.00.

For a further experiment, the system named is T2 HCC. Put plainly: MTT assay of cellular proliferation. It counts as cell-based. The following applies: Mus musculus, 50% inhibition of cellular proliferation. In short, it runs like this: as §2
As for `COc1cc(Oc2ccnc3ccsc23)cc(-n2cccn2)c1` [Compound 40, 7-(3-methoxy-5-(1H-pyrazol-1-yl)phenoxy)thieno[3,2-b]pyridine], the pEC50 is 6.00 to 9.00.

The subject of a further experiment is human breast cancer cell line MDA-MB-231. Put plainly: Xenograft assay. It counts as in vivo. The following applies: MDA-MB-231 xenograft, Nu/Nu mice, 25 mg/kg oral gavage twice a day for 7 days. The protocol:
(§3) Xenografts were initiated in immunocompromised (Nu/Nu) mice with the human lung adenocarcinoma cell line NCI-H23 (FIG. 4A) and the human breast cancer cell line MDA-MB-231 (FIG. 4B). Seven million cells were injected subcutaneously into each mouse and treatment was initiated when the average tumor volumes reached 150 mm3 (n=5/group). Tumor-bearing mice were randomized into different groups to receive either vehicle or indicated compounds. The compounds were administered through oral gavage twice a day for 7 days. For these experiments, all compounds were first dissolved in DMSO and then diluted 1:10 into a mixture containing 50% PEG300 and 49% PBS, 1% Tween 80, pH2.2. 100 ul of drug solution was administered with each dose to each a dose of 25 mg/kg. Tumor volumes were determined from digital caliper raw data by using the formula: Volume (mm3)=(L×W^2)/2. The value W (Width) is the smaller of two perpendicular tumor axes and the value L (Length) is the larger of two perpendicular axes. Mean tumor volumes were calculated for each treatment group at the start point (day 0) and the endpoint (day 7). The percentage change of tumor volumes, defined as (Tumor […]˜Tumor Volume^day0)/Tumor Volume^day0×100% is presented.
On to `COc1cc(Oc2ccnc3ccsc23)cc(-n2cccn2)c1` [Compound 40, 7-(3-methoxy-5-(1H-pyrazol-1-yl)phenoxy)thieno[3,2-b]pyridine], for which the “tumor growth (percentage change of tumor volumes)” value is recorded as “suppress the growth; also recorded: suppressing the tumor growth”.

The next experiment concerns human lung adenocarcinoma cell line NCI-H23. Put plainly: Xenograft assay. The experiment is classed as in vivo. The following applies: Nu/Nu mice, 25 mg/kg oral gavage twice a day for 7 days. The protocol: as §3
For `COc1cc(Oc2ccnc3ccsc23)cc(-n2cccn2)c1` [Compound 40, 7-(3-methoxy-5-(1H-pyrazol-1-yl)phenoxy)thieno[3,2-b]pyridine], the “tumor growth (percentage change of tumor volumes)” value is reported as “suppress the growth; also recorded: suppressing the tumor growth”.
